Experimental data taken from patent publication US7892569B2, “Methods of altering an immune response induced by CpG oligodeoxynucleotides” (The United States of America as represented by the …, priority 2005, dated 2011).

Key:
[1] = Cytokine induction by D ODN (statement in the description); type: cell-based; conditions: no test described
[2] = system: pDC; assay: CXCL16 expression on pDC after preincubation of PBMC with GM-6001; type: cell-based, human; conditions: 50 μM, 30 minutes preincubation of PBMC
Description: (§1) FIGS. 7A-7B are a plot and a bar graph showing the metalloproteinase inhibitor GM-6001 enhances CXCL16 expression and subsequent cytokine production induced by D ODN. PBMC were preincubated in the absence (open bars) or presence (filled bars) of GM-6001 (50 μM) for 30 minutes, washed and then stained for CXCL16 expression on pDC (see FIG. 7A) or stimulated with 1 μM of K or 3 μM D ODN for 24 hours (FIG. 7B). Cytokine production (IL-6 for K ODN and IFN-α D ODN) was assessed from culture supernatants using ELISA. Individual results from six different PBMC are shown.
(§2) CXCL16 expressed on the cell surface is cleaved by the metalloproteinase ADAM-10 (Abel et al., J Immunol. 2004 172(10):6362-72, 2004; Gough et al., J Immunol. 172(6):3678-85, 2004). […] Based on the observation that pDC expressing high levels of CXCL16 were more responsive to D ODN stimulation, human PBMC were incubated with GM6001 followed by K or D ODNs.

[3] = system: PBMC; assay: Cytokine production of PBMC preincubated with GM-6001 and stimulated with K or D ODN (ELISA); type: cell-based, human; conditions: 50 μM preincubation, 24 hours
Description: as §1, §2

[4] = system: PBMC; assay: CpG ODN induced cytokine secretion (TNF-α, IFN-α) in the absence or presence of scavenger receptor ligands; type: cell-based, human; conditions: 50 μg/ml inhibitor
Description: (§3) FIGS. 3A-3D are bar graphs and plots showing the effect of scavenger receptor ligands on the binding and activity of CpG ODN. […] Mean fluorescence intensity representing binding of FITC-ODN was assessed using flow cytometry. Results represent the mean±S.D of three independent experiments. […] Open bars: medium; dotted bars: chondroitin sulfate; right-striped bars: fucoidan; left-striped bars: dextran sulfate Production of IFN-α from PBMC (in the absence or presence of 50 μg/ml inhibitors) was determined by ELISA from 24 hour culture supernatants. […] TNF-α production was determined using intracytoplasmic cytokine staining (representative plots of three independent experiments). FIG. 3D is a plot showing the results obtained when purified pDC were incubated with 1 μM each of K or with 3 μM D ODN in the absence or presence of 50 μg/ml dextran sulfate. Upregulation of HLA-DR/CD54 was determined 24 hours later using flow cytometry.

[5] = system: pDC; assay: Binding of FITC conjugated CpG ODN to purified pDC in the presence of scavenger receptor ligands (flow cytometry); type: cell-based, human; conditions: 50 μg/ml inhibitor, preincubated 20 min at 4° C., mean ± S.D
Description: FIGS. 3A-3D are bar graphs and plots showing the effect of scavenger receptor ligands on the binding and activity of CpG ODN. FIG. 3A is a bar graph of the results obtained when purified pDC were preincubated (20 minutes at 4° C.) with medium or with 50 μg/ml each of inhibitors followed by addition of 1 μM FITC conjugated ODN. Mean fluorescence intensity representing binding of FITC-ODN was assessed using flow cytometry. Results represent the mean±S.D of three independent experiments. FIG. 3B is a bar graph showing D ODN induced IFN-α from peripheral blood mononuclear cells (PBMC). Open bars: medium; dotted bars: chondroitin sulfate; right-striped bars: fucoidan; left-striped bars: dextran sulfate Production of IFN-α from PBMC (in the absence or presence of 50 μg/ml inhibitors) was determined by ELISA from 24 hour culture supernatants. FIG. 3C is a plot showing K ODN induced TNF-α production in pDC (in the absence or presence of 50 μg/ml dextran sulfate). TNF-α production was determined using intracytoplasmic cytokine staining (representative plots of three independent experiments). FIG. 3D is a plot showing the results obtained when purified pDC were incubated with 1 μM each of K or with 3 μM D ODN in the absence or presence of 50 μg/ml dextran sulfate. Upregulation of HLA-DR/CD54 was determined 24 hours later using flow cytometry.
To evaluate whether a scavenger receptor (SR) played a role in D ODN uptake and signaling, the ability of dextran sulfate and fucoidan (classical scavenger receptor ligands) to block the binding of CpG ODN to pDC was evaluated (Table 2 and Supplementary FIG. 3A).

[6] = system: pDC; assay: Upregulation of HLA-DR/CD54 on purified pDC by CpG ODN in the absence or presence of dextran sulfate; type: cell-based, human; conditions: 24 hours, 50 μg/ml inhibitor
Description: as §3

[7] = D ODN: 1 μM FITC conjugated ODN

DV113: D ODN GGTGCATCGATACAGGGGGG (SEQ ID NO: 6) (DNA, backbone not given here; underlined bases phosphodiester, further chemistry not fully specified)
induction of IFN-γ and IFN-α [1]: high levels

CNC(=O)[C@H](Cc1c[nH]c2ccccc12)NC(=O)[C@@H](CC(=O)NO)CC(C)C [GM6001]
expression of CXCL16 on pDC [2]: increased | effect on cells stimulated with K ODN (IL-6 production) ([3]; 1 μM K ODN): no effect | increase of D ODN responsiveness of pDCs (IFN-α production) ([3]; 3 μM D ODN): 2 fold

Dextran sulfate
% inhibition of cytokine secretion ([4]; D ODN induced IFN-α production from PBMC, ELISA): 90.3 ± 8.4% | % inhibition of cytokine secretion ([4]; K ODN induced TNF-α production, intracytoplasmic staining): 5.8 ± 2.3% | % inhibition of binding to pDC [5, 7]: > 50% | % inhibition of binding to pDC ([5]; D ODN: 1 μM FITC conjugated ODN, listed as Dextran Sulfate): 65.02 ± 5.8% | % inhibition of binding to pDC ([5]; K ODN: 1 μM FITC conjugated ODN): not | % inhibition of binding to pDC ([5]; K ODN: 1 μM FITC conjugated ODN, listed as Dextran Sulfate): 23.2 ± 8.8% | % inhibition in the generation of HLA-DR/CD54 double positive cells ([6]; 1 μM K ODN): 0.8 ± 1.8% | % inhibition in the generation of HLA-DR/CD54 double positive cells ([6]; 3 μM D ODN): 92.3 ± 5.8%

chondroitin sulfate
% inhibition of binding to pDC [5, 7]: not
